Reference: US6197775A, “Phosphonate nucleotide derivatives” (Mitsubishi Chemical Corporation, priority 1995, dated 2001)
Where two headings read alike, the source gives them in different places.

How the values were obtained:
[1] = test system: polychromatic erythrocytes (bone marrow); experiment: Micronucleus test using mice; format: in vivo
Protocol: Micronucleus test using mice
A test compound was administered to mice at a dose of 1,000 or 2,000 mg/kg, and bone marrow smear preparations were prepared at 24, 30, 48, and 72 hours after the administration. For a negative control group (0.5% aqueous solution of tragacanth gum) and a positive control group (2 mg/kg of mitomycin C (MMC) was administered as a single intraperitoneal administration), bone marrow smears were prepared at 24 hours after the administration. The samples were stained by the Giemsa's staining method in an ordinary manner, and then 2,000 polychromatic erythrocytes per animal were examined to determine the number of cells having micronuclei and frequency of appearance of micronuclei (%). As statistic analysis, significant difference test was carried out for polychromatic erythrocytes containing micronuclei between the negative control group and the group administered with a test compound according to the stochastic method of Kasternbaum and Bowman.
For comparison, the same test was carried out by using an unsubstituted 6-amino derivative, i.e., 9-[2-[bis(2,2,2-trifluoroethyl)phosphonylmethoxy]ethyl]-2,6-diaminopurine (abbreviated as "DAP"), and PMEA bis(pivaloyloxymethyl ester). Compound Nos. in Table 4 correspond to those in Table 1.

Hepatitis B virus (HBV) = experiment: Activity for inhibiting proliferation of Hepatitis B virus (HBV): inhibition of HBV-DNA synthesis in HB611 cells; format: cell-based; settings: read-out: Inhibitory ratio against HBV-DNA synthesis (%)
Protocol: Activity for inhibiting proliferation of Hepatitis B virus (HBV)
Inhibitory activity of the compounds of the present invention against proliferation of HBV was measured by a known method (K. Ueda, et al., VIROLOGY, 169, 213-216 (1989)).
(§1) 2×10^4 HB611 cells (recombinant human liver cancer cells producing HBV) were cultured in Dulbecco's ME medium containing 10% fetal bovine serum, streptomycin (100 μg/ml), penicillin (100 IU/ml), and Geneteicin (trade name of an antibiotic sold by Life Technologies, 0.2 mg/ml) at 37° C. The medium was changed with fresh medium on the second day and fifth day of the culture, and then changed with a medium containing a test compound at a final concentration of 10 μM or 1 μM on the 8th, 11th and 14th days of the culture. DNA of the cells were collected on the 17th day of the culture. Amounts of HBV-DNA in the cells were measured by Southern blotting method and inhibitory rates against HBV-DNA synthesis were determined. Concentrations of compounds required for 50% death of HB611 cells were determined by cell titer 96 (trademark of Promega Corp.). As references, the same test was carried out by using PMEA and its bis(pivaloyloxymethyl ester). Compound Nos. in Table 2 correspond to those in Table 1.

[2] = Cytotoxicity for HB611 cells (cell titer 96); format: cell-based, human; settings: human; 50% death of HB611 cells; read-out: 50% Cytotoxic concentration for HB611 cells
Protocol: as §1

HBV = experiment: Inhibitory effect on HBV proliferation in a serum of a rat orally administered with a test compound (HB611 cells cultured with 5% serum); format: cell-based, Hepatitis B virus; settings: 5% serum in medium
Protocol: Inhibitory effect on HBV proliferation in a serum of a rat orally administered with a test compound
A group consisting of three rats was orally administered with a test compound at a dose of 1 g/kg or 0.3 g/kg by a single oral administration. Blood of the rats was collected one hour after the administration and serum samples were prepared.
2×10^4 HB611 cells were cultured in Dulbecco's ME medium containing 10% fetal bovine serum, streptomycin (100 μg/ml), penicillin (100 IU/ml) and Geneteicin (0.2 mg/ml) at 37° C. The medium was changed with fresh medium on the second day and fifth day of the culture, and then changed with a medium containing 5% of the above serum (the serum of the rat orally administered with a test compound) on the 8th, 11th and 14th days of the culture. DNA of the cells were collected on the 17th day of the culture. Amounts of HBV-DNA in the cells were measured by Southern blotting method, and inhibitory ratios against […] synthesis in the cells were determined. As a reference, the same test was carried out by using PMEA. Compound Nos. in Table 3 correspond to those in Table 1.

HB611 cells = experiment: Cytotoxicity for HB611 cells (cell titer 96); format: cell-based, human; settings: 50% death of HB611 cells; read-out: 50% Cytotoxic concentration for HB611 cells
Protocol: as §1

[3] = test system: herpes simplex viruses type-1 (HSV-1); settings: literature (Yokota et al.; Votruba et al.); cited from earlier work
[4] = test system: herpes simplex viruses type-2 (HSV-2); settings: literature (Yokota et al.; Votruba et al.); cited from earlier work
[5] = test system: human immunodeficiency virus (HIV); settings: literature (Yokota et al.; Votruba et al.); cited from earlier work
[6] = test system: human hepatitis B virus (HBV); settings: literature (Yokota et al.; Votruba et al.); cited from earlier work
[7] = 408 h, 1 μM, HB611 cells, DNA collected on 17th day
[8] = 408 h, 10 μM, HB611 cells, DNA collected on 17th day
[9] = serum of rats 1 h after single oral dose of 0.3 g/kg

SMILES | Test result (micronucleus test) ([1]; mouse, in vivo) | inhibition at 1 µM (Hepatitis B virus (HBV); [7]) [%] | CC50 [2] [µM] | inhibition at 10 µM (Hepatitis B virus (HBV); [8]) [%] | further results
Nc1nc(N)c2ncn(CCOCP(=O)(OCC(F)(F)F)OCC(F)(F)F)c2n1 [DAP, 9-[2-[bis(2,2,2-trifluoroethyl)phosphonylmethoxy]ethyl]-2,6-diaminopurine, reference compound] | Positive |  |  |  | 
CCCCN(C)c1nc(N)nc2c1ncn2CCOCP(=O)(OCC(F)(F)F)OCC(F)(F)F [Compound 15] |  | 86.7 | > 1000 |  | 
CCCN(C)c1nc(N)nc2c1ncn2CCOCP(=O)(OCC(F)(F)F)OCC(F)(F)F [Compound 13, 2-amino-9-[2-[bis(2,2,2-trifluoroethyl)phosphonylmethoxy]-ethyl]-6-(methyl-1-propylamino)purine] | Negative |  | > 1000 | 100 | Inhibitory ratio against HBV-DNA synthesis (%) (HBV; [9]): 100%
CC(C)(C)C(=O)OCOP(=O)(COCCn1cnc2c(N)ncnc21)OCOC(=O)C(C)(C)C [PMEA ester, PMEA bis(pivaloyloxymethyl ester), reference compound] |  |  |  |  | inhibition at 1 µM (Hepatitis B virus (HBV); HB611, 408 h): 63.7%; inhibition at 10 µM (Hepatitis B virus (HBV); HB611, 408 h): 90%; CC50 (HB611 cells): 18 µM; Test result (micronucleus test) ([1]; mice, 1,000 or 2,000 mg/kg, bone marrow at 24, 30, 48, and 72 hours): Positive
CN(c1ccccc1)c1nc(N)nc2c1ncn2CCOCP(=O)(OCC(F)(F)F)OCC(F)(F)F [Compound 621, 2-amino-9-[2-[bis(2,2,2-trifluoroethyl)phosphonyl-methoxy]ethyl]-6-(methylphenylamino)purine] |  | 68 | > 1000 |  | 
CN(C)c1nc(N)nc2c1nnn2CCOCP(=O)(OCC(F)(F)F)OCC(F)(F)F [Compound 21, 2-amino-8-aza-9-[2-[bis(2,2,2-trifluoroethyl)phosphonyl-methoxy]ethyl]-6-(dimethylamino)purine] |  |  | > 1000 | 100 | 
Nc1ncnc2c1ncn2CCOCP(=O)(O)O [PMEA, 9-(2-phosphonylmethoxy)ethyladenine] |  |  |  |  | inhibition at 10 µM (Hepatitis B virus (HBV); HB611, 408 h): 83%; Inhibitory ratio against HBV-DNA synthesis (%) (HBV; serum of rats 1 h after single oral dose of 1 g/kg): 35.5%; effectiveness against HSV-1 [3]: effective; effectiveness against HSV-2 [4]: effective; effectiveness against HIV [5]: effective; effectiveness against HBV [6]: effective
CN(C)c1nc(N)nc2c1ncn2CCOCP(=O)(OCC(F)(F)F)OCC(F)(F)F [Compound 11, 2-amino-9-[2-[bis(2,2,2-trifluoroethyl)phosphonylmethoxy]ethyl]-6-(dimethylamino)purine] | Negative | 92 | > 1000 | 100 | Inhibitory ratio against HBV-DNA synthesis (%) (HBV; [9]): 95.6%
CCN(CC)c1nc(N)nc2c1ncn2CCOCP(=O)(OCC(F)(F)F)OCC(F)(F)F [Compound 16, 2-amino-9-[2-[bis(2,2,2-trifluoroethyl)phosphonylmethoxy]-ethyl]-6-(diethylamino)purine] |  |  | > 1000 | 100 | 
Nc1nc(N)c2ncn(CCOCP(=O)(O)O)c2n1 [PMDAP, 9-(2-phosphonylmethoxy)ethyl-2,6-diaminopurine] |  |  |  |  | effectiveness against HSV-1 [3]: effective; effectiveness against HSV-2 [4]: effective; effectiveness against HIV [5]: effective; effectiveness against HBV [6]: effective
